Structures are written as SMILES. Where only a bound is given, the exact number is not on record here.

The assay concerns Phytophthora citrophthora. Put plainly: Example B3: action on phytopathogenic soil fungi, growth on agar in Petri dishes. In kind it is cell-based. The settings on record: 120 h, 30 ppm, agar medium, 22° C., 5 days, read-out: inhibition of the development of the fungus.
In general, inhibition refers to the relative decrease from the control value, in per cent. On to `COc1ccc(-c2c(C(=O)N3CCOCC3)sc3ccc(I)cc23)cc1OC` [Compound 101, 2-(4-morpholinocarbonyl)-5-iodo-3-(3,4-dimethoxyphenyl)benzothiophene], for which the inhibition at 30 ppm was no less than 80%.

As for `C=C(C)c1ccc(C(=O)N2CCOCC2)c(-c2ccc(OC)c(OC)c2)c1` [Compound 236], the inhibition at 30 ppm was no less than 80%.

As to `CCN(CC)C(=O)c1ccc(Cl)cc1-c1ccc(OC)c(OC)c1` [Compound 211], the inhibition at 30 ppm is no less than 80%.

For the compound `COc1ccc(C2=C(C(=O)N3CCOCC3)Cc3cc(OC)c(OC)cc32)cc1` [Compound 149], the inhibition at 30 ppm was no less than 80%.

Regarding `COc1ccc(-c2c(C(=O)N3CCOCC3)sc3c(Cl)cccc23)cc1OC` [Compound 124], the inhibition at 30 ppm is no less than 80%.

Consider `COc1ccc(-c2nc(Oc3ccc(F)cc3)ncc2C(=O)N2CCOCC2)cc1OC` [Compound 439], for which the inhibition at 30 ppm was no less than 80%.

For `COCCN(C)C(=O)c1c(-c2ccc(OC)c(OC)c2)cc(-c2ccccc2)nc1C` [Compound 507], the inhibition at 30 ppm is no less than 80%.

On to `COc1ccc(-c2c(C(=O)N3CCOCC3)cc(-c3ccccc3)n2C)cc1OC` [Compound 621], for which the inhibition at 30 ppm is no less than 80%.

`COc1ccc(-c2nc(-c3ccc(Br)cc3)ncc2C(=O)N2CCOCC2)cc1OC` [Compound 427]: the inhibition at 30 ppm was no less than 80%.

Consider `CCN(C)C(=O)c1ccc(-c2ccc(Cl)cc2)nc1-c1ccc(OC)c(OC)c1` [Compound 347], for which the inhibition at 30 ppm was no less than 80%.

Turning to `COc1ccc(-c2c(C(=O)N3CCOCC3)sc3ccc([N+](=O)[O-])cc23)cc1OC` [Compound 104, 2-(4-Morpholinocarbonyl)-5-nitro-3-(3,4-dimethoxyphenyl)benzothiophene], the inhibition at 30 ppm is no less than 80%.

Turning to `COc1ccc(-c2nc(-c3ccc(Cl)cc3)ncc2C(=O)N2CCOCC2)cc1OC` [Compound 407, 2-(4-Chlorophenyl)-4-(3,4-dimethoxyphenyl)-5-morpholinocarbonylpyrimidine], the inhibition at 30 ppm is no less than 80%.

For `C=C(C)c1ccc(C(=O)N(C)CCOC)c(-c2ccc(OC)c(OC)c2)c1` [Compound 213], the inhibition at 30 ppm is no less than 80%.

Consider `Cc1ccc(-c2ccc(C(=O)N3CCOCC3)c(-c3ccc4c(c3)OCO4)c2)cc1` [Compound 231], for which the inhibition at 30 ppm was no less than 80%.

Take `CCN(C)C(=O)c1ccc(Cl)cc1-c1ccc(OC)c(OC)c1` [Compound 209]: the inhibition at 30 ppm is no less than 80%.

`COc1ccc(-c2nc(-c3ccc(C)cc3)ccc2C(=O)N2CCOCC2)cc1OC` [Compound 384]: the inhibition at 30 ppm was no less than 80%.

Regarding `COc1ccc(-c2cc(-c3ccccc3)nc(C)c2C(=O)N2CCOCC2)cc1OC` [Compound 505, N-[4-(3,4-dimethoxyphenyl)-2-methyl-6-phenylnicotinoyl]morpholine], the inhibition at 30 ppm is no less than 80%.

In the case of `COc1ccc(-c2c(C(=O)N3CCOCC3)oc3ccc([N+](=O)[O-])cc23)cc1OC` [Compound 136], the inhibition at 30 ppm was no less than 80%.

Consider `COc1ccc(-c2nc(C(C)(C)C)ccc2C(=O)N2CCOCC2)cc1OC` [Compound 3110], for which the inhibition at 30 ppm is no less than 80%.

Turning to `COc1ccc(-c2nc(-c3ccc(Cl)cc3)ccc2C(=O)N2CCCC2)cc1OC` [Compound 373], the inhibition at 30 ppm was no less than 80%.

Consider `COc1ccc(-c2nc(Sc3ccc(Br)cc3)ncc2C(=O)N2CCOCC2)cc1OC` [Compound 447], for which the inhibition at 30 ppm was no less than 80%.

For `COc1ccc(-c2nc(-c3ccc(Cl)cc3)c(C)cc2C(=O)N2CCOCC2)cc1OC` [Compound 367], the inhibition at 30 ppm was no less than 80%.

Regarding `COc1ccc(-c2c(C(=O)N3CCCC(O)C3)sc3ccccc23)cc1OC` (centres unmarked) [Compound 164], the inhibition at 30 ppm was no less than 80%.

The values are drawn from patent publication US5475132A, “Antifungal agents based on amides containing a phenyl group” (Rhone-Poulenc Agrochimie, priority 1988, dated 1995).
